Laboratory results published in patent publication US12187773B2, “Modified GIP peptide analogues” (Antag Therapeutics ApS, priority 2018, dated 2025).
Like-named read-outs stand apart in the source and are kept apart here. *1 amine or outer side, *2 acyl side, *3 side chain or, on linkers, in order; H or OH if unused. Where a SMILES comes first, the peptide text is derived from it. Side-chain parts run from the residue outwards. The star is where a group is joined. C18 diacid = O=C(O)CCCCCCCCCCCCCCCCC(=O)*; C16 diacid = O=C(O)CCCCCCCCCCCCCCC(=O)*; γGlu = O=C(O)[C@H](CCC(=O)[*:2])N[*:1]; AEEA = NCCOCCOCC(=O)O

Key:
[1] = Elimination half-life (T1/2) estimated in Göttingen minipigs; type: in vivo
Method: 2-3 Göttingen minipigs were subcutaneously administered one of the GIP analogues of the present invention (1-10 nmol/kg, total volume 2-6 mL) and blood samples were collected before and up to 432 hours post subcutaneous administration.) from a central venous catheter. The catheter was flushed with saline and heparin between samples. Blood was collected into cold EDTA tubes, centrifuged and plasma was kept at −20° C. pending analyses.
Concentrations of the acylated GIP(3-30)NH2 or GIP(5-30)NH2 analogues in blood samples from Göttingen minipigs were analyzed by RIA. Analogues' immunoreactivity was determined using antiserum Ab95234, Ab95235, Ab95236, a polyclonal in-house antibody raised in rabbits specific for either the mid region of GIP(1-30)NH2 or amidated C-terminus of GIP(3-30)NH2.
In addition to the hormone analysis, blood concentrations of AT374, 380, 382-385, 392-393 were determined by LC/MS performed by Red Glead Discovery AB, Lund, Sweden. The plasma samples were precipitated by addition of 3 parts ethanol followed by thorough mixing. After centrifugation and dilution of the supernatant, the samples were analyzed by LC-MS/MS and compared with a 9-point calibration curve. The calibration curves were prepared in naïve plasma matrix from Göttingen minipigs.

GLP1 receptor (GLP1R) = target: T1, GLP1 receptor (GLP1R) (Homo sapiens, UniProt P43220); test: cAMP assay - selectivity, antagonism at GLP1 receptor; type: cell-based; conditions: Table 3A; COS-7 cells; agonist GLP1 at 50-80% of maximal cAMP
T1 construct: expressed in transfected cells; host or cells: COS-7 (transient)
Method: (§1) Transient transfected COS-7 cells expressing the either of the GLP1 receptor (GLP1R), GLP2 receptor (GLP2R), glucagon receptor (GcgR) or secretin receptor (SCTR) were seeded in white 96-well plates with a density of 3.5*10^4/well. The day after, the cells were washed twice with Hepes buffered saline (HBS) buffer and incubated with HBS and 1 mM 3-isobutyl-1-methylxanthine (IBMX) for 30 min at 37° C. To test for agonistic properties, ligands were added and incubated for 30 min at 37° C. In order to test for antagonistic properties, the cells were preincubated with the antagonists for 10 min prior to the addition the natural agonist for the expressed receptor (GLP1 for GLP1R expressing cells, GLP2 for GLP2R expressing cells, glucagon for the GcgR and secretin for the SCTR) and subsequent incubated for 20 additional min. […] The HitHunter™ cAMP XS assay (DiscoveRx) was carried out according to the manufacturer's instructions.

GLP2 receptor (GLP2R) = target: T2, GLP2 receptor (GLP2R) (Homo sapiens, UniProt O95838); test: cAMP assay - selectivity, antagonism at GLP2 receptor; type: cell-based; conditions: Table 3B; COS-7 cells; agonist GLP2
T2 construct: expressed in transfected cells; host or cells: COS-7 (transient)
T2 sequence (O95838 1-553): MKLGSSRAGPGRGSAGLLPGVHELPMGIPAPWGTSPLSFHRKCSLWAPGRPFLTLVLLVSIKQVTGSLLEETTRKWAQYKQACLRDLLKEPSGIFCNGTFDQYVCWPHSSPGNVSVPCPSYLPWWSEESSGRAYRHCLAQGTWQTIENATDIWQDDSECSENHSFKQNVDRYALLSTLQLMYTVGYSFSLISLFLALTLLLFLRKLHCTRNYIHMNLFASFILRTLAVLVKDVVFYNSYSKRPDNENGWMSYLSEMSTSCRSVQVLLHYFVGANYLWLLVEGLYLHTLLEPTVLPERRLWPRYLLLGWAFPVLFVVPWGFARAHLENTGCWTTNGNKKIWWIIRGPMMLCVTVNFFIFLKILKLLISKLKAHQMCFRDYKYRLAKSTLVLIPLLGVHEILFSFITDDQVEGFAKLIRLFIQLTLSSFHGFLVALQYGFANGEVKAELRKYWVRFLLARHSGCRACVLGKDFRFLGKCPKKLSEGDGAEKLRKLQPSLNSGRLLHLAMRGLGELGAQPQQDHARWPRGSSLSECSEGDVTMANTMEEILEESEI
Method: as §1

secretin receptor (SCTR) = target: T3, secretin receptor (SCTR) (Homo sapiens, UniProt P47872); test: cAMP assay - selectivity, antagonism at secretin receptor; type: cell-based; conditions: Table 3B; COS-7 cells; agonist secretin
T3 construct: expressed in transfected cells; host or cells: COS-7 (transient)
Method: as §1

human GIP receptor = target: T4, human GIP receptor (Homo sapiens, UniProt P48546); test: cAMP accumulation, antagonism (DiscoveRx HitHunter cAMP XS assay); type: cell-based; set-up: host or cells: COS-7 (transient, calcium phosphate; pCMV-Script vector); conditions: for cAMP antagonism, % inhib / GIPR, Antagonism, % inhib: COS-7 cells; for cAMP antagonism, % inhib: % inhibition of Emax; for GIPR, Antagonism, % inhib: Table 3A/3B
T4 sequence (P48546 22-466): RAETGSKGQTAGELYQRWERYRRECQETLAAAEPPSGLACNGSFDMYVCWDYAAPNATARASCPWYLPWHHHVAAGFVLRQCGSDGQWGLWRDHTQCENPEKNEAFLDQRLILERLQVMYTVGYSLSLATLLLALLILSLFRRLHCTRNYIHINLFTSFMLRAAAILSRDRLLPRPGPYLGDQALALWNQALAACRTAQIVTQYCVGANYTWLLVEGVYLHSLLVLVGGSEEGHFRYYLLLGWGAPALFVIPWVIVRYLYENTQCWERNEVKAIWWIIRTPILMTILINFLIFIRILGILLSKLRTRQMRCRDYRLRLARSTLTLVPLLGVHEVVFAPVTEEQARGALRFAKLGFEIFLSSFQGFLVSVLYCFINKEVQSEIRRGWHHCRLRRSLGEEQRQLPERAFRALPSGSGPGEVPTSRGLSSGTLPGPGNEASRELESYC
How it was run: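 Transiently transfected COS-7 cells expressing human GIP receptor, pretreated with 1 mM IBMX in HBS 30 min at 37 °C. Agonism: ligand 30 min at 37 °C; antagonism: 10 min antagonist preincubation, then GIP at 50-80% maximal response for 20 min. cAMP measured by HitHunter cAMP XS.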

[2] = Göttingen, minipig, plasma, subcutaneous, Example 1, read-out: T1/2 (converted)
[3] = sc, Table 1B, species not given, unit h, LC/MS in Göttingen minipig plasma for these IDs, subcutaneous 1-10 nmol/kg, read-out: T½ (converted)
[4] = IC50-value (GIPR antagonism), Examples 1 and 2, values of Tables 1B and 2
[5] = cAMP antagonism, nM (IC50), Table 1B, DiscoveRx, transiently transfected COS-7 cells

T3 sequence (P47872 23-440, species assumed): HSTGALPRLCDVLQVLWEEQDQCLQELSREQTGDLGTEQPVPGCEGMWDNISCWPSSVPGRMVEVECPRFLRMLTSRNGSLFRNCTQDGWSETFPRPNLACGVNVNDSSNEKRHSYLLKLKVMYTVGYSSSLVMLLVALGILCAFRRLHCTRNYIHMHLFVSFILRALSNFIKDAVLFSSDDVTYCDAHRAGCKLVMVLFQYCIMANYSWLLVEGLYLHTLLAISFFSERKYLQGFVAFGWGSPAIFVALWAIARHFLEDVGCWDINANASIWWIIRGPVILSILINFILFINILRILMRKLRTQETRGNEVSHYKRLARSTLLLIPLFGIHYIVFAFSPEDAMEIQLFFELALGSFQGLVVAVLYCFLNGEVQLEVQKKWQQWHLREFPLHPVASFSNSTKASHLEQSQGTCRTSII
T1 sequence (P43220 24-463, species assumed): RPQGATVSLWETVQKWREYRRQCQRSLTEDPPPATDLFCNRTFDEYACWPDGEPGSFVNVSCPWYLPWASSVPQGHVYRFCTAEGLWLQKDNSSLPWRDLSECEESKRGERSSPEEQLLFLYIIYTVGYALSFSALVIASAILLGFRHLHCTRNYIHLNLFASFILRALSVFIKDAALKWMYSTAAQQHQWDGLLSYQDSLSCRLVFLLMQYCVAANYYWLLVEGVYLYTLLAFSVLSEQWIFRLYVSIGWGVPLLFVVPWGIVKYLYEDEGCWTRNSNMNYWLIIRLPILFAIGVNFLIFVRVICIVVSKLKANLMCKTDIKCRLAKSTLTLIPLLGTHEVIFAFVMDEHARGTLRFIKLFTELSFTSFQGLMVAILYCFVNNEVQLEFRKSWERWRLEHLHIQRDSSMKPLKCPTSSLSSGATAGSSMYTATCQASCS

| SMILES | half-life [1, 2] | half-life [1, 3] | GLP-1R, Antagonism, nM (GLP1 receptor (GLP1R)) | GLP-2R, Antagonism (GLP2 receptor (GLP2R)) | Secretin R, Antagonism (secretin receptor (SCTR)) | IC50 (human GIP receptor; [4]) | cAMP antagonism, % inhib (human GIP receptor; Table 1B, DiscoveRx) | GIPR, Antagonism, % inhib (human GIP receptor; DiscoveRx) | IC50 (human GIP receptor; [5]) |
| --- | --- | --- | --- | --- | --- | --- | --- | --- | --- |
| CC[C@H](C)[C@H](NC(=O)[C@H](CO)NC(=O)[C@H](Cc1ccc(O)cc1)NC(=O)[C@H](CC(=O)O)NC(=O)[C@H](CO)NC(=O)[C@@H](NC(=O)[C@H](Cc1ccccc1)NC(=O)[C@@H](NC(=O)CNC(=O)[C@@H](N)CO)[C@@H](C)O)[C@@H](C)CC)C(=O)N[C@@H](C)C(=O)N[C@@H](CCSC)C(=O)N[C@@H](CC(=O)O)C(=O)N[C@@H](CCCNC(=N)N)C(=O)N[C@H](C(=O)N[C@@H](CCCCNC(=O)COCCOCCNC(=O)COCCOCCNC(=O)COCCOCCNC(=O)CC[C@H](NC(=O)CCCCCCCCCCCCCCCCC(=O)O)C(=O)O)C(=O)N[C@@H](CCC(N)=O)C(=O)N[C@@H](CCC(N)=O)C(=O)N[C@@H](CC(=O)O)C(=O)N[C@@H](Cc1ccccc1)C(=O)N[C@H](C(=O)N[C@@H](CC(N)=O)C(=O)N[C@@H](Cc1c[nH]c2ccccc12)C(=O)N[C@@H](CC(C)C)C(=O)N[C@@H](CC(C)C)C(=O)N[C@@H](C)C(=O)N[C@@H](CCC(N)=O)C(=O)N[C@@H](CCCNC(=N)N)C(N)=O)C(C)C)[C@@H](C)CC [AT385] (H-SGTFISDYSIAMDRIK([AEEA-AEEA-AEEA-γGlu-C18 diacid])QQDFVNWLLAQR-NH2; N-terminus assumed) | 20 h | 20 h | No antagonism | No antagonism | No antagonism | 4 nM | 100% | 100.0% | 4 nM |
| CC[C@H](C)[C@H](NC(=O)[C@H](CO)NC(=O)[C@H](Cc1ccc(O)cc1)NC(=O)[C@H](CC(=O)O)NC(=O)[C@H](CO)NC(=O)[C@@H](NC(=O)[C@H](Cc1ccccc1)NC(=O)[C@@H](NC(=O)CNC(=O)[C@@H](N)CO)[C@@H](C)O)[C@@H](C)CC)C(=O)N[C@@H](C)C(=O)N[C@@H](CCSC)C(=O)N[C@@H](CC(=O)O)C(=O)N[C@@H](CCCNC(=N)N)C(=O)N[C@H](C(=O)N[C@@H](CCCCNC(=O)COCCOCCNC(=O)COCCOCCNC(=O)CC[C@H](NC(=O)CCCCCCCCCCCCCCCCC(=O)O)C(=O)O)C(=O)N[C@@H](CCC(N)=O)C(=O)N[C@@H](CCC(N)=O)C(=O)N[C@@H](CC(=O)O)C(=O)N[C@@H](Cc1ccccc1)C(=O)N[C@H](C(=O)N[C@@H](CC(N)=O)C(=O)N[C@@H](Cc1c[nH]c2ccccc12)C(=O)N[C@@H](CC(C)C)C(=O)N[C@@H](CC(C)C)C(=O)N[C@@H](C)C(=O)N[C@@H](CCC(N)=O)C(=O)N[C@@H](CCCNC(=N)N)C(N)=O)C(C)C)[C@@H](C)CC [AT384] (H-SGTFISDYSIAMDRIK([AEEA-AEEA-γGlu-C18 diacid])QQDFVNWLLAQR-NH2; N-terminus assumed) | 36 h | 36 h | No antagonism | No antagonism | No antagonism | 8 nM | 100% | 100.0% | 8 nM |
| CC[C@H](C)[C@H](NC(=O)[C@H](CO)NC(=O)[C@H](Cc1ccc(O)cc1)NC(=O)[C@H](CC(=O)O)NC(=O)[C@H](CO)NC(=O)[C@@H](NC(=O)[C@H](Cc1ccccc1)NC(=O)[C@@H](NC(=O)CNC(=O)[C@@H](N)CO)[C@@H](C)O)[C@@H](C)CC)C(=O)N[C@@H](C)C(=O)N[C@@H](CCSC)C(=O)N[C@@H](CC(=O)O)C(=O)N[C@@H](CCCNC(=N)N)C(=O)N[C@H](C(=O)N[C@@H](CCCCNC(=O)COCCOCCNC(=O)COCCOCCNC(=O)COCCOCCNC(=O)CC[C@H](NC(=O)CCCCCCCCCCCCCCC(=O)O)C(=O)O)C(=O)N[C@@H](CCC(N)=O)C(=O)N[C@@H](CCC(N)=O)C(=O)N[C@@H](CC(=O)O)C(=O)N[C@@H](Cc1ccccc1)C(=O)N[C@H](C(=O)N[C@@H](CC(N)=O)C(=O)N[C@@H](Cc1c[nH]c2ccccc12)C(=O)N[C@@H](CC(C)C)C(=O)N[C@@H](CC(C)C)C(=O)N[C@@H](C)C(=O)N[C@@H](CCC(N)=O)C(=O)N[C@@H](CCCNC(=N)N)C(N)=O)C(C)C)[C@@H](C)CC [AT383] (H-SGTFISDYSIAMDRIK([AEEA-AEEA-AEEA-γGlu-C16 diacid])QQDFVNWLLAQR-NH2; N-terminus assumed) |  | 12 h | No antagonism | No antagonism | No antagonism |  | 100% | 100.0% | 1 nM |
| CC[C@H](C)[C@H](NC(=O)[C@H](CO)NC(=O)[C@H](Cc1ccc(O)cc1)NC(=O)[C@H](CC(=O)O)NC(=O)[C@H](CO)NC(=O)[C@@H](NC(=O)[C@H](Cc1ccccc1)NC(=O)[C@@H](NC(=O)CNC(=O)[C@@H](N)CO)[C@@H](C)O)[C@@H](C)CC)C(=O)N[C@@H](C)C(=O)N[C@@H](CCSC)C(=O)N[C@@H](CC(=O)O)C(=O)N[C@@H](CCCNC(=N)N)C(=O)N[C@H](C(=O)N[C@@H](CCCCNC(=O)CCCCCCCCCCCCCCCCC(=O)O)C(=O)N[C@@H](CCC(N)=O)C(=O)N[C@@H](CCC(N)=O)C(=O)N[C@@H](CC(=O)O)C(=O)N[C@@H](Cc1ccccc1)C(=O)N[C@H](C(=O)N[C@@H](CC(N)=O)C(=O)N[C@@H](Cc1c[nH]c2ccccc12)C(=O)N[C@@H](CC(C)C)C(=O)N[C@@H](CC(C)C)C(=O)N[C@@H](C)C(=O)N[C@@H](CCC(N)=O)C(=O)N[C@@H](CCCNC(=N)N)C(N)=O)C(C)C)[C@@H](C)CC [AT393] (H-SGTFISDYSIAMDRIK(C18 diacid)QQDFVNWLLAQR-NH2; N-terminus assumed) | 25 h | 25 h | No antagonism | No antagonism | No antagonism | 1 nM | 100% | 100.0% | 1 nM |
